Laboratory results taken from patent US11953435B2, “Zinc-responsive fluorophores” (Northwestern University, priority 2019, dated 2024).

Assay: Octanol-water partition coefficient (log P)
Format: physicochemical
Conditions: 1:1 HEPES buffer and 1-octanol
Method: Aqueous solutions were prepared by using de-ionized water with resistivity […], obtained using a Milli-Q water purification system. In order to properly compare the photophysical properties of ZincBY-2, ZincBY-3, and ZincBY-4 to ZincBY-1, the photophysical properties of ZincBY-1 we remeasured. Tested values differed from the previously published values (Ref. B2; incorporated by reference in its entirety). It was determined that copper was present in the aqueous buffer used for in vitro analysis of the previous samples. The corrected values are used herein, utilizing buffers that are copper-free. Stock solutions of ZincBY-1, ZincBY-2, ZincBY-3, and ZincBY-4 were prepared at concentrations of 5 mM and stored at −20° C. in aliquots that were used immediately after thawing for each experiment. Unless otherwise stated, all spectroscopic methods were conducted in aqueous buffer containing 50 mM HEPES (pH 7.2) and 0.1 M KNO3. […] Fluorescence spectra were acquired using a PerkinElmer LS 55 fluorescence spectrophotometer. […] Quantum yields for apo and holo ZincBY-1, ZincBY-2, ZincBY-3, and ZincBY-4 were determined by plotting absorbance vs. fluorescence intensity of solutions containing ZincBY-1, ZincBY-2, ZincBY-3, or ZincBY-4 at probe concentrations ranging from 50-250 nM. […] Fluorescein dissolved in 0.1 N NaOH was used as the quantum yield standard, using a literature-determined quantum yield of 0.95.^3 For all fluorophore solutions, fluorescence excitation was set at 490 nm and fluorescence emission was integrated from 510 nm to 650 nm. […] Fluorescence spectra were recorded using zinc probes (ZincBY-1, ZincBY-2, ZincBY-3, or ZincBY-4; 200 nM) and ZnSO4 (various concentrations). […] Free Zn^2+ was calculated according to a previously reported method (Ref. B4; incorporated by reference in its entirety). […] The fluorescence spectra of zinc probes (ZincBY-2, ZincBY-3, or ZincBY-4; 200 nM) wasere measured at various pH values (4.5-11). […] The fluorescence spectra were compared to that of ZincBY-2 (200 nM), ZincBY-3 (200 nM), or ZincBY-4 (200 nM) in the presence of 10 μM TPEN. […]

Question: For `Cc1cc(C)c(C2=C3C=CC(OCCN=[N+]=[N-])=[N+]3[B-](F)(F)n3c2ccc3N(CCN(Cc2ccccn2)Cc2ccccn2)Cc2ccccn2)c(C)c1` [ZincBY-2, N1-(7-(2-azidoethoxy)-5,5-difluoro-10-mesityl-5H-4λ4,5λ4-dipyrrolo[1,2-c:2′,1′-f][1,3,2]diazaborinin-3-yl)-N1,N2,N2-tris(pyridin-2-ylmethyl)ethane-1,2-diamine], which LogP is on record?
Answer: ~1.25

Question: Which LogP does the source give for `Cc1cc(C)c(C2=C3C=CC(OCCN)=[N+]3[B-](F)(F)n3c2ccc3N(CCN(Cc2ccccn2)Cc2ccccn2)Cc2ccccn2)c(C)c1` [ZincBY-3, N1-(7-(2-aminoethoxy)-5,5-difluoro-10-mesityl-5H-4λ4,5λ4-dipyrrolo[1,2-c:2′,1′-f][1,3,2]diazaborinin-3-yl)-N1,N2,N2-tris(pyridin-2-ylmethyl)ethane-1,2-diamine] here?
Answer: ~0.15

Question: For `CC(=O)NCCOc1ccc2n1[B-](F)(F)[N+]1=C(N(CCN(Cc3ccccn3)Cc3ccccn3)Cc3ccccn3)C=CC1=C2c1c(C)cc(C)cc1C` [ZincBY-4, N-(2-((7-((2-(bis(pyridin-2-ylmethyl)amino)ethyl)(pyridin-2-ylmethyl)amino)-5,5-difluoro-10-mesityl-5H-5λ4,6λ4-dipyrrolo[1,2-c:2′,1′-f][1,3,2]diazaborinin-3-yl)oxy)ethyl)acetamide], which LogP is on record?
Answer: ~0.33
